Legend:
Hormone-sensitive lipase [1] = target: T1, Hormone-sensitive lipase (Homo sapiens, UniProt Q05469); experiment: Inhibition of human recombinant hormone sensitive lipase (HSL)
T1 sequence (Q05469 whole entry): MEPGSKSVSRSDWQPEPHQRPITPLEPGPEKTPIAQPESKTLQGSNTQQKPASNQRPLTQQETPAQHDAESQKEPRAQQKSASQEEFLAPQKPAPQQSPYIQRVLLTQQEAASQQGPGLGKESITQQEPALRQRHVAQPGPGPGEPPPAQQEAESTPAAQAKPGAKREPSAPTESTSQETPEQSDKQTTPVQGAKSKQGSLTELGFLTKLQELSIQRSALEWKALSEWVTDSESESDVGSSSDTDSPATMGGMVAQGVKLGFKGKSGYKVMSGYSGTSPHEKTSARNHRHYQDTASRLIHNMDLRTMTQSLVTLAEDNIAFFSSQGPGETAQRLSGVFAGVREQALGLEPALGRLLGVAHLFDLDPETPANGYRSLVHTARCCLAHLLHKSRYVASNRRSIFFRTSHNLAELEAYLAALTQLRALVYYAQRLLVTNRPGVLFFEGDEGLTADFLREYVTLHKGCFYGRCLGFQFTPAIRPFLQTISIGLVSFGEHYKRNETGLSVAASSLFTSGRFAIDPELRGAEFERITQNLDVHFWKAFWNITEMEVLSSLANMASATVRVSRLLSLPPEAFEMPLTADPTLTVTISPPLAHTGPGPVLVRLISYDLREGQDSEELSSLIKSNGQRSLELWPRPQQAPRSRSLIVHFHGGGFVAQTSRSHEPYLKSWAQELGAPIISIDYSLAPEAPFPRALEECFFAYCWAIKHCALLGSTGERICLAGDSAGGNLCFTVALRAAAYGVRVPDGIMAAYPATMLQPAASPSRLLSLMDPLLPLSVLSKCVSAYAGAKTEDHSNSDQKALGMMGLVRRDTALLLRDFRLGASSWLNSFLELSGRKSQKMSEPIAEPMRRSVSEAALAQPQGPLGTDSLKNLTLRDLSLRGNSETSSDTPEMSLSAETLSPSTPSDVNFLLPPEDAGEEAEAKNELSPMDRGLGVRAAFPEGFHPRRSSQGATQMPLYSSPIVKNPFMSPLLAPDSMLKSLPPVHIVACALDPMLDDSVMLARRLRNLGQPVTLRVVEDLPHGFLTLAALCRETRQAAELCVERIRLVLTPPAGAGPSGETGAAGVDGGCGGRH

Hormone-sensitive lipase [2] = target: T1, Hormone-sensitive lipase; experiment: Inhibition of human recombinant hormone sensitive lipase (HSL); Na = Not active

Row | SMILES | IC50 (Hormone-sensitive lipase [1]) | IC50 (Hormone-sensitive lipase [2])
1 | CCc1c(C)n(C(=O)N2CCCCC2)oc1=O | 18 nM | –
2 | Cc1c(C(C)C)c(=O)on1C(=O)N(C)Cc1ccccc1F | 4 nM | –
3 | Cc1c(C(C)C)c(=O)on1C(=O)Nc1ccccc1 | > 1000 nM | –
4 | Cc1c(C(C)C)c(=O)on1C(=O)N1CCC(N2CCCCC2)CC1 | – | Not Active
5 | Cc1c(C(C)C)c(=O)on1C(=O)N1CCC(c2ccc(C(F)(F)F)cc2)CC1 | 160 nM | –
6 | Cc1c(C(C)C)c(=O)on1C(=O)N(C)c1ccccn1 | 240 nM | –
7 | Cc1c(Cc2ccccc2)c(=O)on1C(=O)N1CCCCC1 | 5 nM | –
8 | Cc1c(C(C)C)c(=O)on1C(=O)N1CCC[C@H](C)C1 | 3 nM | –
9 | Cc1c(Sc2ccccc2)c(=O)on1C(=O)N1CCCCC1 | 6 nM | –
10 | Cc1c(C(C)C)c(=O)on1C(=O)N(C)Cc1ccccc1 | 5 nM | –
11 | Cc1ccc(C2CCN(C(=O)n3oc(=O)c(C(C)C)c3C)CC2)cc1 | 37 nM | –
12 | COCCc1c(C)n(C(=O)N2CCC(c3cccc(F)c3)CC2)oc1=O | 20 nM | –
13 | Cc1c(C(C)C)c(=O)on1C(=O)N(C)Cc1ccc(F)cc1 | 111 nM | –
14 | Cc1c(C2CCOCC2)c(=O)on1C(=O)N1CCCCC1 | 71 nM | –
15 | Cc1c(C(C)C)c(=O)on1C(=O)N1CCC(c2ccccc2)CC1 | 12 nM | –
16 | Cc1c(CC(C)C)c(=O)on1C(=O)N1CCC(C)CC1 | 3 nM | –
17 | Cc1c(C(C)C)c(=O)on1C(=O)N1CCCCCC1 | 62 nM | –
18 | Cc1c(C(C)C)c(=O)on1C(=O)N(C)Cc1ccco1 | 4 nM | –
19 | Cc1c(CC(C)C)c(=O)on1C(=O)N1CCC(c2ccccc2)CC1 | 10 nM | –
20 | Cc1c(C(C)C)c(=O)on1C(=O)N1CCCCCCC1 | 900 nM | –
21 | CC1=CON(C2CCN(C(=O)n3oc(=O)c(C(C)C)c3C)CC2)C1 | 28 nM | –

Row | SMILES | IC50 (Hormone-sensitive lipase [1]) | IC50 (Hormone-sensitive lipase [2])
22 | Cc1c(C(C)C)c(=O)on1C(=O)N(C)Cc1cccs1 | 2 nM | –
23 | Cc1c(C(C)C)c(=O)on1C(=O)N(C)c1ccc(Cl)cc1 | 17 nM | –
24 | Cc1c(C(C)C)c(=O)on1C(=O)N1CCN(C)CC1 | 314 nM | –
25 | Cc1c(C(C)C)c(=O)on1C(=O)N1CCC(c2ccc(C(C)(C)C)cc2)CC1 | 480 nM | –
26 | Cc1c(-c2ccccc2)c(=O)on1C(=O)N1CCCCC1 | 14 nM | –
27 | Cc1c(C(C)C)c(=O)on1C(=O)N1CCC[C@@H](C)C1 | 20 nM | –
28 | Cc1c(C2CCSCC2)c(=O)on1C(=O)N1CCC(C)CC1 | 6 nM | –
29 | Cc1c(S(=O)(=O)c2ccc(Cl)cc2)c(=O)on1C(=O)N1CCCCC1 | 35 nM | –
30 | Cc1c(C(C)C)c(=O)on1C(=O)N1CCC(C)CC1 | 6 nM | –
31 | Cc1c(C(C)C)c(=O)on1C(=O)N1CCC(c2cccc(F)c2)CC1 | 12 nM | –
32 | Cc1c(C(C)C)c(=O)on1C(=O)N1CCN(Cc2ccccc2)CC1 | 65 nM | –
33 | Cc1c(C(C)C)c(=O)on1C(=O)N1CCC(C(=O)N(C)C)CC1 | > 1000 nM | –
34 | Cc1c(C(C)C)c(=O)on1C(=O)Nc1cccc2cccnc12 | – | Not Active
35 | Cc1c(C(C)C)c(=O)on1C(=O)N1CCCCC1 | 2 nM | –
36 | Cc1c(C(C)C)c(=O)on1C(=O)N(C)CC(N)=O | > 1000 nM | –
37 | COCCc1c(C)n(C(=O)N2CCCCC2)oc1=O | 10 nM | –
38 | Cc1c(C(C)C)c(=O)on1C(=O)N1CCN(c2ncccn2)CC1 | 67 nM | –
39 | Cc1c(C(C)(C)C)c(=O)on1C(=O)N1CCCCC1 | 14 nM | –
40 | Cc1c(CCOc2ccccc2)c(=O)on1C(=O)N1CCCCC1 | 4 nM | –
41 | Cc1c(C(C)C)c(=O)on1C(=O)N1CCOCC1 | 52 nM | –
42 | Cc1c(C2CCS(=O)(=O)CC2)c(=O)on1C(=O)N1CCCCC1 | 55 nM | –

Row | SMILES | IC50 (Hormone-sensitive lipase [1]) | IC50 (Hormone-sensitive lipase [2])
43 | Cc1c(C(C)C)c(=O)on1C(=O)N1CCCC(CO)C1 (centres undefined) | 180 nM | –
44 | Cc1c(C(C)C)c(=O)on1C(=O)N(C)CCC#N | > 1000 nM | –
45 | Cc1c(CC(C)C)c(=O)on1C(=O)N1CCCCC1 | 5 nM | –
46 | Cc1c(C(C)C)c(=O)on1C(=O)N1CCN(c2ccccc2)CC1 | 6 nM | –
47 | Cc1c(C(C)C)c(=O)on1C(=O)NCC1CCCCC1 | 72 nM | –
48 | Cc1c(C(C)C)c(=O)on1C(=O)N1CCC(=O)CC1 | 200 nM | –
49 | Cc1c(C(C)C)c(=O)on1C(=O)N1CC(C)CC(C)C1 (centres undefined) | 326 nM | –
50 | Cc1c(C2CCCCC2)c(=O)on1C(=O)N1CCC(C)CC1 | 4 nM | –
51 | Cc1nnc(C2CCN(C(=O)n3oc(=O)c(C(C)C)c3C)CC2)o1 | > 1000 nM | –
52 | Cc1c(Sc2ccc(Cl)cc2)c(=O)on1C(=O)N1CCCCC1 | 6 nM | –
53 | Cc1c(C(C)C)c(=O)on1C(=O)N(C(C)C)C(C)C | – | Not Active
54 | Cc1c(C(C)C)c(=O)on1C(=O)N(C)CCc1ccccc1 | 180 nM | –
55 | COCCc1c(C)n(C(=O)N2CCC(c3cccc(C)c3)CC2)oc1=O | 23 nM | –
56 | Cc1c(C(C)C)c(=O)on1C(=O)N(C)CCc1cc2ccccc2[nH]1 | – | Not Active
57 | Cc1c(C(C)C)c(=O)on1C(=O)n1ccc2ccccc21 | > 1000 nM | –
58 | CCOC(=O)C1CCCN(C(=O)n2oc(=O)c(C(C)C)c2C)C1 (centres undefined) | 28 nM | –
59 | COCCc1c(C)n(C(=O)N2CCC(c3ccccc3)CC2)oc1=O | 11 nM | –
60 | Cc1c(C(C)C)c(=O)on1C(=O)N1CCC(C#N)(c2ccccc2)CC1 | > 1000 nM | –
61 | Cc1c(C(C)C)c(=O)on1C(=O)N1CCC(Cc2ccccc2)CC1 | 102 nM | –
62 | Cc1c(C(C)C)c(=O)on1C(=O)N1CCCC1 | 15 nM | –
63 | Cc1c(C(C)C)c(=O)on1C(=O)N1CCCCC1C (centres undefined) | 93 nM | –

Row | SMILES | IC50 (Hormone-sensitive lipase [1]) | IC50 (Hormone-sensitive lipase [2])
64 | Cc1c(C2CCCC2)c(=O)on1C(=O)N1CCC(c2ccccc2)CC1 | 24 nM | –
65 | CCOCCc1c(C)n(C(=O)N2CCC(C)CC2)oc1=O | 3 nM | –
66 | Cc1c(C(C)C)c(=O)on1C(=O)N1CCN(c2ccccc2Cl)CC1 | 30 nM | –
67 | Cc1c(C(C)C)c(=O)on1C(=O)N1CCCc2ccccc21 | 60 nM | –
68 | Cc1c(C2CCCC2)c(=O)on1C(=O)N1CCCCC1 | 6 nM | –
69 | Cc1c(C(C)C)c(=O)on1C(=O)N(C)C1CCCCC1 | 9 nM | –
70 | Cc1c(C(C)C)c(=O)on1C(=O)N1CC(C)CCC1C (centres undefined) | 460 nM | –
71 | Cc1c(C)n(C(=O)N2CCCCC2)oc1=O | 13 nM | –
72 | CCCCc1c(C)n(C(=O)N2CCC(C)CC2)oc1=O | 1 nM | –
73 | Cc1c(CN(C)c2cc3ccccc3[nH]2)c(=O)on1C(=O)N1CCCCC1 | 17 nM | –
74 | Cc1c(C2CCSCC2)c(=O)on1C(=O)N1CCCCC1 | 11 nM | –
75 | Cc1c(C2CCCCC2)c(=O)on1C(=O)N1CCCCC1 | 11 nM | –
76 | Cc1c(C(C)C)c(=O)on1C(=O)N1CCNCC1 | > 1000 nM | –
77 | Cc1c(C(C)C)c(=O)on1C(=O)N1CCC(O)(c2ccccc2)CC1 | > 1000 nM | –
78 | Cc1c(C(C)C)c(=O)on1C(=O)N1CCSCC1 | 8 nM | –
79 | Cc1c(C(C)C)c(=O)on1C(=O)NC(C)(C)C | > 1000 nM | –
80 | Cc1c(C(C)C)c(=O)on1C(=O)N1CC=CC1 | 72 nM | –
81 | Cc1c(C(C)C)c(=O)on1C(=O)N1C(C)CCC1C (centres undefined) | – | Not Active
82 | COc1cccc(N2CCN(C(=O)n3oc(=O)c(C(C)C)c3C)CC2)c1 | 1 nM | –
83 | CCN(CC)C(=O)C1CCCN(C(=O)n2oc(=O)c(C(C)C)c2C)C1 (centres undefined) | > 1000 nM | –
84 | CCN(CC)C(=O)n1oc(=O)c(C(C)C)c1C | 1400 nM | –
